Assay results from patent US20250147039A1, “Compounds for complexation of rare earth elements and/or s-, p-, d- block metals, their coordination compounds, peptide conjugates, method of their preparation and use thereof” (USTAV ORGANICKE CHEMIE A BIOCHEMIE AV CR V.V.I., priority 2021, published 2025).

Tests used:
[1] = Formation of 1,5-cz-[M(Lig)] from Lig and M^III ions (metal dependent click-zip) (Charts 4, 5); format: physicochemical; conditions: for conversion to 1,5-cz-[M(Lig)], Bi^III: 4% DMSO in MOPS/NaOH buffer pH 7.0, TD728 in 50% i-PrOH; for conversion to 1,5-cz-[M(Lig)], Ir^III / conversion to 1,5-cz-[M(Lig)], Ru^III: 50% i-PrOH in MOPS/NaOH buffer pH 7.0; for conversion to 1,5-cz-[M(Lig)], Sc^III / conversion to 1,5-cz-[M(Lig)], Y^III: MOPS/NaOH buffer pH 7.0, TD728, TD827 in 50% i-PrOH; for conversion to 1,5-cz-[M(Lig)], Y^III: TD714 sum of two diastereoisomers
[2] = Formation of 1,5-cz-[M(Lig)] from Lig and M^II ions (metal dependent click-zip) (Charts 6, 7); format: physicochemical; conditions: for conversion to 1,5-cz-[M(Lig)], Pt^II: 50% i-PrOH in MOPS/NaOH buffer pH 7.0; for conversion to 1,5-cz-[M(Lig)], Ca^II / conversion to 1,5-cz-[M(Lig)], Cd^II / conversion to 1,5-cz-[M(Lig)], Mn^II / conversion to 1,5-cz-[M(Lig)], Pb^II / conversion to 1,5-cz-[M(Lig)], Pd^II: MOPS/NaOH buffer pH 7.0, TD728 in 50% i-PrOH
[3] = Formation of 1,5-cz-[Ln(Lig)] from Lig and Ln^III ions (metal dependent click-zip), MOPS/NaOH buffer pH 7.0, analytical HPLC (Charts 1, 2)
[4] = 1 hour at 80° C., TD714 sum of two diastereoisomers
[5] = after 1 week at 80° C., 50% i-PrOH in aq. MOPS/NaOH Buffer pH 7.0
[6] = after 1 hour at 80° C., 50% i-PrOH in aq. MOPS/NaOH Buffer pH 7.0
[7] = after 1 week at 80° C., MOPS/NaOH buffer pH 7.0

CC(C)[Si](C#Cc1cccc(CN2CCN(CC(=O)O)CCN(Cc3cccc(CN=[N+]=[N-])n3)CCN(CC(=O)O)CC2)n1)(C(C)C)C(C)C [TD728]
conversion to 1,5-cz-[M(Lig)], Bi^III ([1]; 1 week at 80° C.): 29% | conversion to 1,5-cz-[M(Lig)], Ir^III ([1]; 1 week at 80° C.): 0% | conversion to 1,5-cz-[M(Lig)], Ru^III ([1]; 1 week at 80° C.): 0% | conversion to 1,5-cz-[M(Lig)], Sc^III ([1]; 1 week at 80° C.): 2% | conversion to 1,5-cz-[M(Lig)], Y^III ([1]; 1 week at 80° C.): 50% | conversion to 1,5-cz-[M(Lig)], Bi^III ([1]; 1 hour at 80° C.): 5% | conversion to 1,5-cz-[M(Lig)], Ir^III ([1]; 1 hour at 80° C.): 0% | conversion to 1,5-cz-[M(Lig)], Ru^III ([1]; 1 hour at 80° C.): 0% | conversion to 1,5-cz-[M(Lig)], Sc^III ([1]; 1 hour at 80° C.): 0% | conversion to 1,5-cz-[M(Lig)], Y^III ([1]; 1 hour at 80° C.): 1% | conversion to 1,5-cz-[M(Lig)], Pt^II ([2]; 1 week at 80° C.): 0% | conversion to 1,5-cz-[M(Lig)], Ca^II ([2]; 1 week at 80° C.): 37% | conversion to 1,5-cz-[M(Lig)], Cd^II ([2]; 1 week at 80° C.): 36% | conversion to 1,5-cz-[M(Lig)], Mn^II ([2]; 1 week at 80° C.): 1% | conversion to 1,5-cz-[M(Lig)], Pb^II ([2]; 1 week at 80° C.): 14% | conversion to 1,5-cz-[M(Lig)], Pd^II ([2]; 1 week at 80° C.): 1% | conversion to 1,5-cz-[M(Lig)], Pt^II ([2]; 1 hour at 80° C.): 0% | conversion to 1,5-cz-[M(Lig)], Ca^II ([2]; 1 hour at 80° C.): 0% | conversion to 1,5-cz-[M(Lig)], Mn^II ([2]; 1 hour at 80° C.): 0% | conversion to 1,5-cz-[M(Lig)], Pb^II ([2]; 1 hour at 80° C.): 0% | conversion to 1,5-cz-[M(Lig)], Pd^II ([2]; 1 hour at 80° C.): 1% | conversion to 1,5-cz-[M(Lig)], Cd^II [2, 4]: 1% | conversion to 1,5-cz-[Ln(Lig)], Ce^III [3, 5]: 5% | conversion to 1,5-cz-[Ln(Lig)], Ce^III [3, 6]: 0% | conversion to 1,5-cz-[Ln(Lig)], Dy^III [3, 5]: 54% | conversion to 1,5-cz-[Ln(Lig)], Dy^III [3, 6]: 1% | conversion to 1,5-cz-[Ln(Lig)], Er^III [3, 5]: 72% | conversion to 1,5-cz-[Ln(Lig)], Er^III [3, 6]: 1% | conversion to 1,5-cz-[Ln(Lig)], Eu^III [3, 5]: 35% | conversion to 1,5-cz-[Ln(Lig)], Eu^III [3, 6]: 0% | conversion to 1,5-cz-[Ln(Lig)], Gd^III [3, 5]: 32% | conversion to 1,5-cz-[Ln(Lig)], Gd^III [3, 6]: 0% | conversion to 1,5-cz-[Ln(Lig)], Ho^III [3, 5]: 60% | conversion to 1,5-cz-[Ln(Lig)], Ho^III [3, 6]: 1% | conversion to 1,5-cz-[Ln(Lig)], La^III [3, 5]: 13% | conversion to 1,5-cz-[Ln(Lig)], La^III [3, 6]: 0% | conversion to 1,5-cz-[Ln(Lig)], Lu^III [3, 5]: 88% | conversion to 1,5-cz-[Ln(Lig)], Lu^III [3, 6]: 2% | conversion to 1,5-cz-[Ln(Lig)], Nd^III [3, 5]: 24% | conversion to 1,5-cz-[Ln(Lig)], Nd^III [3, 6]: 0% | conversion to 1,5-cz-[Ln(Lig)], Pr^III [3, 5]: 23% | conversion to 1,5-cz-[Ln(Lig)], Pr^III [3, 6]: 0% | conversion to 1,5-cz-[Ln(Lig)], Sm^III [3, 5]: 34% | conversion to 1,5-cz-[Ln(Lig)], Sm^III [3, 6]: 0% | conversion to 1,5-cz-[Ln(Lig)], Tb^III [3, 5]: 49% | conversion to 1,5-cz-[Ln(Lig)], Tb^III [3, 6]: 0% | conversion to 1,5-cz-[Ln(Lig)], Tm^III [3, 5]: 84% | conversion to 1,5-cz-[Ln(Lig)], Tm^III [3, 6]: 1% | conversion to 1,5-cz-[Ln(Lig)], Yb^III [3, 5]: 88% | conversion to 1,5-cz-[Ln(Lig)], Yb^III [3, 6]: 2%

C#Cc1cccc(CN2CCN(CC(=O)O)CCN(Cc3cc(Cl)cc(CN=[N+]=[N-])n3)CCN(CC(=O)O)CC2)n1 [TD764]
conversion to 1,5-cz-[M(Lig)], Bi^III ([1]; 1 week at 80° C.): 85% | conversion to 1,5-cz-[M(Lig)], Sc^III ([1]; 1 week at 80° C.): 5% | conversion to 1,5-cz-[M(Lig)], Y^III ([1]; 1 week at 80° C.): 95% | conversion to 1,5-cz-[M(Lig)], Bi^III ([1]; 1 hour at 80° C.): 31% | conversion to 1,5-cz-[M(Lig)], Ca^II ([2]; 1 week at 80° C.): 95% | conversion to 1,5-cz-[M(Lig)], Cd^II ([2]; 1 week at 80° C.): 96% | conversion to 1,5-cz-[M(Lig)], Mn^II ([2]; 1 week at 80° C.): 35% | conversion to 1,5-cz-[M(Lig)], Pb^II ([2]; 1 week at 80° C.): 37% | conversion to 1,5-cz-[M(Lig)], Pd^II ([2]; 1 week at 80° C.): 9% | conversion to 1,5-cz-[M(Lig)], Ca^II ([2]; 1 hour at 80° C.): 16% | conversion to 1,5-cz-[M(Lig)], Mn^II ([2]; 1 hour at 80° C.): 1% | conversion to 1,5-cz-[M(Lig)], Pb^II ([2]; 1 hour at 80° C.): 1% | conversion to 1,5-cz-[M(Lig)], Pd^II ([2]; 1 hour at 80° C.): 10% | conversion to 1,5-cz-[M(Lig)], Cd^II [2, 4]: 53% | conversion to 1,5-cz-[Ln(Lig)], Ce^III [3, 7]: 20% | conversion to 1,5-cz-[Ln(Lig)], Dy^III [3, 7]: 93% | conversion to 1,5-cz-[Ln(Lig)], Er^III [3, 7]: 95% | conversion to 1,5-cz-[Ln(Lig)], Eu^III [3, 7]: 79% | conversion to 1,5-cz-[Ln(Lig)], Gd^III [3, 7]: 86% | conversion to 1,5-cz-[Ln(Lig)], Ho^III [3, 7]: 94% | conversion to 1,5-cz-[Ln(Lig)], La^III [3, 7]: 25% | conversion to 1,5-cz-[Ln(Lig)], Lu^III [3, 7]: 96% | conversion to 1,5-cz-[Ln(Lig)], Nd^III [3, 7]: 50% | conversion to 1,5-cz-[Ln(Lig)], Pr^III [3, 7]: 35% | conversion to 1,5-cz-[Ln(Lig)], Sm^III [3, 7]: 73% | conversion to 1,5-cz-[Ln(Lig)], Tb^III [3, 7]: 91% | conversion to 1,5-cz-[Ln(Lig)], Tm^III [3, 7]: 96% | conversion to 1,5-cz-[Ln(Lig)], Yb^III [3, 7]: 96%
